Drawing on patent US8372867B2, “Insecticidal aryl isoxazoline derivatives” (Bayer CropScience AG, priority 2007, dated 2013), this text covers mortality and death rate for 44 compounds.

Where only a bound is given, the exact number is not on record here.

One assay concerns Musca domestica. Put plainly: whole plant or invertebrate. The note with it: read-out: activity (mortality in %).
The test system of the next assay is Aulacophora femoralis. The experiment in a line: Test against Aulacophora femoralis (leaf dip). In kind it is in vivo. Conditions: 100 ppm of the active compound; second instar larvae; after 7 days. On the procedure: (§1) To prepare an appropriate formulation of an active compound, 1 part by weight of the active compound was mixed with the aforementioned amount of the solvent containing the aforementioned amount of the emulsifier, and the mixture was diluted to a prescribed concentration with water.
Leaves of cucumbers were soaked in a diluted aqueous solution of the prescribed concentration of an active compound prepared in the same manner as in the aforementioned tests, air-dried, and placed a plastic cup containing sterilized black soil. Into this cup, 5 larvae of Aulacophora femoralis at second instar were then released. After 7 days, the number of dead larvae was counted to calculate the death rate.

A further assay concerns Spodoptera litura. Put plainly: Test against larva of Spodoptera litura (leaf dip). In kind it is in vivo. Conditions: 100 ppm of the active compound; third instar larvae; after 7 days. On the procedure:
Solvent: Dimethylformamide 3 parts by weight
Emulsifier: Polyoxyethylene alkyl phenyl ether 1 part by weight
as §1
Leaves of sweet potate were soaked in the test agent diluted to a prescribed concentration with water, air-dried, and placed in a dish of 9 cm in diameter. Into this dish, 10 larvae of Spodoptera litura at the third instar were released and kept in a room at constant temperature of 25° C. After 2 and 4 days, more leaves of sweet potato were added, and the number of dead larvae after 7 days was counted to calculate the death rate. In this test, the test results are presented as an average of the results of two dishes per section.

The test system of another assay is Lucilia cuprina larvae. Put plainly: whole plant or invertebrate. The note with it: in Equus caballus, read-out: activity (mortality in %).
Another assay deals with Boophilus microplus. Put plainly: whole plant or invertebrate. Conditions: Rhipicephalus microplus, 168 h, read-out: activity (mortality in %).

In the case of `CC(=O)NCc1ccc(C2=NOC(c3cc(Cl)cc(Cl)c3)(C(F)(F)F)C2)cc1` (stereo not drawn) [1-1, N-{4-[5-(3,5-dichlorophenyl)-5-(trifluoromethyl)-4,5-dihydroisoxazol-3-yl]benzyl}acetamide], the mortality at 100 ppm in the assay on Musca domestica and in the assay on Lucilia cuprina larvae was not below 80% each time. The death rate with Aulacophora femoralis and in the assay on Spodoptera litura was 100% in each case. In the case of `CC(=O)N(Cc1ccc(C2=NOC(c3cc(Cl)cc(Cl)c3)(C(F)(F)F)C2)cc1)C(C)=O` (stereo not drawn) [1-2], the death rate in the assay on Aulacophora femoralis and in the assay with Spodoptera litura was 100% in each case. In the case of `O=CN(Cc1ccc(C2=NOC(c3cc(Cl)cc(Cl)c3)(C(F)(F)F)C2)cc1)Cc1ccccn1` (stereo not drawn) [1-4], the death rate with Spodoptera litura amounted to 100%. Turning to `CCC(=O)N(Cc1ccc(C2=NOC(c3cc(Cl)cc(Cl)c3)(C(F)(F)F)C2)cc1)Cc1ccccn1` (stereo not drawn) [1-6], the death rate in the assay with Aulacophora femoralis and in the assay with Spodoptera litura was 100% each time. Turning to `CC(=O)N(Cc1ccccn1)C(C#N)c1ccc(C2=NOC(c3cc(Cl)cc(Cl)c3)(C(F)(F)F)C2)cc1` (stereo not drawn) [1-11, N-(cyano{4-[5-(3,5-dichlorophenyl)-5-(trifluoromethyl)-4,5-dihydroisoxazol-3-yl]phenyl}methyl)-N-(pyridin-2-ylmethyl)-acetamide], the death rate in the assay with Aulacophora femoralis and with Spodoptera litura was 100% in each case. For `O=CNCc1ccc(C2=NOC(c3cc(Cl)cc(Cl)c3)(C(F)(F)F)C2)cc1Br` (stereo not drawn) [1-12], the death rate in the assay on Aulacophora femoralis and with Spodoptera litura was 100% in each case. `CC(=O)NCc1ccc(C2=NOC(c3cc(Cl)cc(Cl)c3)(C(F)(F)F)C2)cc1Br` (stereo not drawn) [1-13]: the death rate with Aulacophora femoralis and in the assay with Spodoptera litura was 100% each time.

For the compound `CC(=O)N(Cc1ccccn1)Cc1ccc(C2=NOC(c3cc(Cl)cc(Cl)c3)(C(F)(F)F)C2)cc1Br` (stereo not drawn) [1-15, N-{2-bromo-4-[5-(3,5-dichlorophenyl)-5-(trifluoromethyl)-4,5-dihydroisoxazol-3-yl]benzyl}-N-(pyridin-2-ylmethyl)acetamide], the mortality at 100 ppm with Musca domestica and in the assay on Lucilia cuprina larvae was not below 80% each time. The death rate in the assay with Aulacophora femoralis and in the assay with Spodoptera litura was 100% throughout. As for `CC(=O)N(Cc1cccnc1)Cc1ccc(C2=NOC(c3cc(Cl)cc(Cl)c3)(C(F)(F)F)C2)cc1Br` (stereo not drawn) [1-16], the death rate in the assay with Aulacophora femoralis and with Spodoptera litura was 100% throughout.

Regarding `CC(=O)N(Cc1ccncc1)Cc1ccc(C2=NOC(c3cc(Cl)cc(Cl)c3)(C(F)(F)F)C2)cc1Br` (stereo not drawn) [1-17], the death rate with Aulacophora femoralis and in the assay on Spodoptera litura was 100% in each case. As for `CCC(=O)NCc1ccc(C2=NOC(c3cc(Cl)cc(Cl)c3)(C(F)(F)F)C2)cc1Br` (stereo not drawn) [1-19], the death rate in the assay with Aulacophora femoralis and in the assay on Spodoptera litura was 100% in each case. As to `CCCC(=O)NCc1ccc(C2=NOC(c3cc(Cl)cc(Cl)c3)(C(F)(F)F)C2)cc1Br` (stereo not drawn) [1-20], the death rate with Aulacophora femoralis and in the assay on Spodoptera litura was 100% in each case. On to `CC(C)C(=O)NCc1ccc(C2=NOC(c3cc(Cl)cc(Cl)c3)(C(F)(F)F)C2)cc1Br` (stereo not drawn) [1-21], for which the death rate with Aulacophora femoralis and with Spodoptera litura was 100% throughout.

Consider `O=C(NCc1ccc(C2=NOC(c3cc(Cl)cc(Cl)c3)(C(F)(F)F)C2)cc1Br)C(F)(F)F` (stereo not drawn) [1-23], for which the death rate in the assay on Aulacophora femoralis and in the assay with Spodoptera litura was 100% throughout.

Take `O=C(NCc1ccc(C2=NOC(c3cc(Cl)cc(Cl)c3)(C(F)(F)F)C2)cc1Br)c1ccccc1` (stereo not drawn) [1-24]: the death rate with Aulacophora femoralis and in the assay on Spodoptera litura was 100% each time. `O=C(NCc1ccc(C2=NOC(c3cc(Cl)cc(Cl)c3)(C(F)(F)F)C2)cc1Br)c1ccccn1` (stereo not drawn) [1-25] returned a death rate in the assay on Spodoptera litura of 100%.

`O=C(NCc1ccc(C2=NOC(c3cc(Cl)cc(Cl)c3)(C(F)(F)F)C2)cc1Br)c1cccnc1` (stereo not drawn) [1-26]: the death rate in the assay on Aulacophora femoralis and in the assay with Spodoptera litura was 100% throughout. Turning to `O=C(NCc1ccc(C2=NOC(c3cc(Cl)cc(Cl)c3)(C(F)(F)F)C2)cc1Br)c1ccncc1` (stereo not drawn) [1-27], the death rate in the assay on Aulacophora femoralis and in the assay on Spodoptera litura was 100% in each case. As for `O=C(NCc1ccc(C2=NOC(c3cc(Cl)cc(Cl)c3)(C(F)(F)F)C2)cc1Br)c1ccccc1F` (stereo not drawn) [1-28], the death rate with Aulacophora femoralis and in the assay with Spodoptera litura was 100% each time. Turning to `O=C(NCc1ccc(C2=NOC(c3cc(Cl)cc(Cl)c3)(C(F)(F)F)C2)cc1Br)c1cccc(Cl)c1` (stereo not drawn) [1-32], the death rate with Aulacophora femoralis and in the assay on Spodoptera litura was 100% throughout. Compound `O=C(NCc1ccc(C2=NOC(c3cc(Cl)cc(Cl)c3)(C(F)(F)F)C2)cc1Br)c1ccc(Cl)cc1` (stereo not drawn) [1-33] yielded a death rate in the assay on Aulacophora femoralis of 100%.

Turning to `O=C(NCc1ccc(C2=NOC(c3cc(Cl)cc(Cl)c3)(C(F)(F)F)C2)cc1Br)c1ccccc1Br` (stereo not drawn) [1-34], the death rate in the assay on Aulacophora femoralis and in the assay with Spodoptera litura was 100% in each case. In the case of `Cc1ccccc1C(=O)NCc1ccc(C2=NOC(c3cc(Cl)cc(Cl)c3)(C(F)(F)F)C2)cc1Br` (stereo not drawn) [1-35], the death rate in the assay with Aulacophora femoralis and in the assay on Spodoptera litura was 100% throughout. For `C=CC(=O)NCc1ccc(C2=NOC(c3cc(Cl)cc(Cl)c3)(C(F)(F)F)C2)cc1Br` (stereo not drawn) [1-36], the death rate in the assay on Aulacophora femoralis and with Spodoptera litura was 100% throughout. Consider `CS(=O)(=O)NCc1ccc(C2=NOC(c3cc(Cl)cc(Cl)c3)(C(F)(F)F)C2)cc1Br` (stereo not drawn) [1-38], for which the death rate in the assay with Aulacophora femoralis and in the assay with Spodoptera litura was 100% throughout.

As to `CNC(=O)NCc1ccc(C2=NOC(c3cc(Cl)cc(Cl)c3)(C(F)(F)F)C2)cc1Br` (stereo not drawn) [1-40], the death rate in the assay on Aulacophora femoralis and with Spodoptera litura was 100% each time. `CN(C)C(=O)NCc1ccc(C2=NOC(c3cc(Cl)cc(Cl)c3)(C(F)(F)F)C2)cc1Br` (stereo not drawn) [1-41]: the death rate with Aulacophora femoralis and with Spodoptera litura was 100% throughout.

In turn, `CSC(=O)NCc1ccc(C2=NOC(c3cc(Cl)cc(Cl)c3)(C(F)(F)F)C2)cc1Br` (stereo not drawn) [1-43] displayed a death rate with Spodoptera litura of 100%. As for `CC(=O)N(C)Cc1ccc(C2=NOC(c3cc(Cl)cc(Cl)c3)(C(F)(F)F)C2)cc1Br` (stereo not drawn) [1-46], the death rate in the assay with Aulacophora femoralis and with Spodoptera litura was 100% in each case. `CC(=O)NCc1ccc(C2=NOC(c3cc(Cl)cc(Cl)c3)(C(F)(F)F)C2)cc1F` (stereo not drawn) [1-57]: the death rate in the assay on Aulacophora femoralis and in the assay on Spodoptera litura was 100% throughout. For `CC(=O)NCc1ccc(C2=NOC(c3cc(Cl)cc(Cl)c3)(C(F)(F)F)C2)cc1Cl` (stereo not drawn) [1-58], the death rate in the assay with Aulacophora femoralis and in the assay with Spodoptera litura was 100% throughout. For `CC(=O)NCc1ccc(C2=NOC(c3cc(Cl)cc(Cl)c3)(C(F)(F)F)C2)cc1I` (stereo not drawn) [1-59], the death rate with Aulacophora femoralis and in the assay on Spodoptera litura was 100% throughout. `CC(=O)NCc1ccc(C2=NOC(c3cc(Cl)cc(Cl)c3)(C(F)(F)F)C2)cc1[N+](=O)[O-]` (stereo not drawn) [1-60, N-{4-[5-(3,5-dichlorophenyl)-5-(trifluoromethyl)-4,5-dihydroisoxazol-3-yl]-2-nitrobenzyl}acetamide]: the mortality at 100 ppm in the assay on Musca domestica, with Boophilus microplus and in the assay on Lucilia cuprina larvae was not below 80% throughout. The death rate in the assay with Aulacophora femoralis and in the assay with Spodoptera litura was 100% in each case.

Regarding `CC(=O)NCc1ccc(C2=NOC(c3cc(Cl)cc(Cl)c3)(C(F)(F)F)C2)cc1C#N` (stereo not drawn) [1-62], the death rate with Aulacophora femoralis and in the assay on Spodoptera litura was 100% in each case. `CC(=O)N(Cc1ccc(C2=NOC(c3cc(Cl)cc(Cl)c3)(C(F)(F)F)C2)cc1Br)N=C(C)C` (stereo not drawn) [1-90] returned a death rate with Spodoptera litura of 100%. `CC(=O)NCc1ccc(C2=NOC(C)(c3cc(Cl)cc(Cl)c3)C2)cc1Br` (stereo not drawn) [1-93]: the death rate in the assay on Aulacophora femoralis was 100%.

`CC(=O)NCc1ccc(C2=NOC(c3ccc(Cl)c(Cl)c3)(C(F)(F)F)C2)cc1Br` (stereo not drawn) [1-94]: the death rate with Aulacophora femoralis and in the assay with Spodoptera litura was 100% throughout. Regarding `CC(=O)NCc1ccc(C2=NOC(C)(c3cccc(F)c3)C2)cc1Br` (stereo not drawn) [1-97], the death rate in the assay on Aulacophora femoralis and in the assay with Spodoptera litura was 100% in each case. As for `CC(=O)NCc1ccc(C2=NOC(c3cccc(Cl)c3)(C(F)(F)F)C2)cc1Br` (stereo not drawn) [1-98], the death rate in the assay on Aulacophora femoralis and in the assay with Spodoptera litura was 100% throughout. In the case of `CC(=O)NCc1ccc(C2=NOC(c3cccc(C(F)(F)F)c3)(C(F)(F)F)C2)cc1Br` (stereo not drawn) [1-99], the death rate in the assay on Aulacophora femoralis and in the assay on Spodoptera litura was 100% in each case. On to `CC(=O)NCc1ccc(C2=NOC(c3ccc(C(F)(F)F)cc3)(C(F)(F)F)C2)cc1Br` (stereo not drawn) [1-100], for which the death rate with Aulacophora femoralis and with Spodoptera litura was 100% throughout. `CC(=O)NCc1ccc(C2=NOC(c3cc(C(F)(F)F)cc(C(F)(F)F)c3)(C(F)(F)F)C2)cc1Br` (stereo not drawn) [1-101]: the death rate in the assay with Aulacophora femoralis and in the assay with Spodoptera litura was 100% throughout. As to `CC(=O)NCc1ccc(C2=NOC(c3cccc([N+](=O)[O-])c3)(C(F)(F)F)C2)cc1Br` (stereo not drawn) [1-102], the death rate in the assay with Aulacophora femoralis came out at 100%.

In the case of `CC(=O)NCc1ccc(C2=NOC(c3cccc(C#N)c3)(C(F)(F)F)C2)cc1Br` (stereo not drawn) [1-106], the death rate in the assay on Aulacophora femoralis came to 100%.
